US12473304B2, “Heterocyclic PAD4 inhibitors” (BRISTOL-MYERS SQUIBB COMPANY, priority 2020, dated 2025)

Target: recombinant human PAD4 (Homo sapiens (Human), UniProt Q9UM07)
Assay: RFMS Human PAD4 Functional Assay 2
Format: biochemical
Conditions: RFMS assay 2; 35 nM recombinant human PAD4, 500 μM TSTGGRQGSHH peptide, 2 mM CaCl2, room temperature 30 minutes; read-out: hPAD4 RFMS IC50
Experimental: RFMS Human PAD4 Functional Assay 2: Compound Preparation: • Stock compounds were dissolved and stored in 100% DMSO. Compound solutions were prepared via serial dilution at 3-fold intervals in DMSO with top compound concentration at 20 μM in each assay. 0.25 μl of compound solution was transferred from the compound plate to the assay plate by using an acoustic dispenser. Final Assay Conditions: • Total reaction volume: 25 μl • Assay buffer: […] pH 7.4, 200 mM NaCl, 2 mM CaCl2, 5 mM DTT • 35 nM recombinant human PAD4 • 500 μM TSTGGRQGSHH peptide • […] DMSO • Stop solution: 10% formic acid
Reaction mixtures were incubated at room temperature for 30 minutes. 10 μl each of the reaction mixtures was then mixed with 40 μl of 10% formic acid in a microtiter plate. The plate was frozen at −80° C. before shipping out on dry ice for RapidFire mass spectroscopy analysis.
Thawed samples were loaded onto the Rapid Fire 300 system (Agilent) wherein they were first sipped for 250 ms and then loaded onto an Agilent “C” (C18) cartridge using a mobile phase of water containing 0.09% formic acid/0.01% trifluoroacetic acid for 3000 ms desalting flowing at a rate of 1.5 ml/min. Once the samples were loaded and washed, a mobile phase of acetonitrile containing 0.09% formic acid/0.01% trifluoroacetic acid was used to elute the samples directly onto a Sciex API4000 triple quadrupole mass spectrometer for 3000 ms at a flow rate of 1.25 ml/min.
MRM transitions for substrate and product were monitored in positive ESI mode at m/z=562.3/969.7 and m/z=562.8/541.3 respectively. The dwell time for each transition was set at 100 ms, and the ESI voltage was used at 5500 with a source temperature of 650° C. Extracted ion peaks for each transition were integrated using the Rapid Fire Integrator software.

Sequence of recombinant human PAD4 (Q9UM07 whole entry): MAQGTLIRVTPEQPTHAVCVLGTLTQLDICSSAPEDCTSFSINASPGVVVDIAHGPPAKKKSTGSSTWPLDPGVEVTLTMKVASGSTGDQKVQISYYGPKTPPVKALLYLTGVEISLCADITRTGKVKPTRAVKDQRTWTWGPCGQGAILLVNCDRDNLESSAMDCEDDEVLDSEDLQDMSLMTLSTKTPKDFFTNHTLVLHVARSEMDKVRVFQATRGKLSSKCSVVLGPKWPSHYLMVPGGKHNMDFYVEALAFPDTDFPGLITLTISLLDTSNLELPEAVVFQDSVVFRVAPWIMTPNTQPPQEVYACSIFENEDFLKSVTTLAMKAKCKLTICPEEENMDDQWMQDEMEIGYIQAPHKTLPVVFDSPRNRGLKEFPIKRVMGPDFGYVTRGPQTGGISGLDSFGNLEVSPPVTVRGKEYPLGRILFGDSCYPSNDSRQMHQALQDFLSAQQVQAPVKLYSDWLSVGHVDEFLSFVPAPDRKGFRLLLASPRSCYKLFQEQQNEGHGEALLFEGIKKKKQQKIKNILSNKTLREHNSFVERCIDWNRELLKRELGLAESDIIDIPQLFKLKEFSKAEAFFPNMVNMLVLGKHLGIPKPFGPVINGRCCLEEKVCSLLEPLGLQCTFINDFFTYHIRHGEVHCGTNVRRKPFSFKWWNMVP

Row | Structure (SMILES) | IC50
1 | COc1cc(C(=O)N2CCC[C@@H](N)C2)cc2sc(-c3cc4ccccc4n3CC3CC3)c(CCO)c12 [Example 622, (R)-(3-aminopiperidin-1-yl)(2-(1-(cyclopropylmethyl)-1H-indol-2-yl)-3-(2-hydroxyethyl)-4-methoxybenzo[b]thiophen-6-yl)methanone] | 1200 nM
2 | COc1cc(C(=O)N2C[C@H](N)C[C@@H](F)C2)cc2sc(-c3cc4ccccc4n3CC3CC3)c(CCO)c12 [Example 623, ((3R,5R)-3-amino-5-fluoropiperidin-1-yl)(2-(1-(cyclopropylmethyl)-1H-indol-2-yl)-3-(2-hydroxyethyl)-4-methoxybenzo[b]thiophen-6-yl)methanone] | 395 nM
3 | COc1ccc2cc(-c3sc4cc(C(=O)N5C[C@H](N)C[C@@H](F)C5)cc(OC)c4c3CCO)n(CC3CC3)c2c1 [Example 624, ((3R,5R)-3-amino-5-fluoropiperidin-1-yl)(2-(1-(cyclopropylmethyl)-6-methoxy-1H-indol-2-yl)-3-(2-hydroxyethyl)-4-methoxybenzo[b]thiophen-6-yl)methanone] | 383 nM
4 | COc1cc(C(=O)N2CCC[C@@H](N)C2)cc2sc(-c3cc4ccccc4n3CC3CC3)c(CCN)c12 [Example 625, (R)-(3-(2-aminoethyl)-2-(1-(cyclopropylmethyl)-1H-indol-2-yl)-4-methoxybenzo[b]thiophen-6-yl)(3-aminopiperidin-1-yl)methanone] | 2040 nM
5 | Cc1c(-c2cc3ccccc3n2CC2CC2)sc2cc(C(=O)N3CCC[C@@H](N)C3)cc(CCO)c12 [Example 626, (R)-(3-aminopiperidin-1-yl)(2-(1-(cyclopropylmethyl)-1H-indol-2-yl)-4-(2-hydroxyethyl)-3-methylbenzo[b]thiophen-6-yl)methanone] | 849 nM
6 | Cc1c(-c2cc3ccccc3n2CC2CC2)sc2cc(C(=O)N3CCC[C@@H](N)C3)cc(CO)c12 [Example 627, (R)-(3-Aminopiperidin-1-yl)(2-(1-(cyclopropylmethyl)-1H-indol-2-yl)-4-(hydroxymethyl)-3-methylbenzo[b]thiophen-6-yl)methanone] | 879 nM
7 | COc1ccc2cc(-c3oc4cc(C(=O)N5C[C@H](N)C[C@@H](F)C5)cc(OC)c4c3CCO)n(CC3CC3)c2c1 [Example 628, ((3R,5R)-3-Amino-5-fluoropiperidin-1-yl)(2-(1-(cyclopropylmethyl)-6-methoxy-1H-indol-2-yl)-3-(2-hydroxyethyl)-4-methoxybenzofuran-6-yl)methanone] | 322 nM
8 | COc1cc(C(=O)N2C[C@H](N)C[C@@H](F)C2)cc2oc(-c3cc4cccnc4n3CC3CC3)c(CCO)c12 [Example 629, ((3R,5R)-3-amino-5-fluoropiperidin-1-yl)(2-(1-(cyclopropylmethyl)-1H-pyrrolo[2,3-b]pyridin-2-yl)-3-(2-hydroxyethyl)-4-methoxybenzofuran-6-yl)methanone] | 785 nM
9 | COc1cc(C(=O)N2C[C@H](N)C[C@@H](F)C2)cc2oc(-c3cc4ccccc4n3CC3CC3)c(CCO)c12 [Example 630, ((3R,5R)-3-amino-5-fluoropiperidin-1-yl)(2-(1-(cyclopropylmethyl)-1H-indol-2-yl)-3-(2-hydroxyethyl)-4-methoxybenzofuran-6-yl)methanone] | 288 nM
10 | CN[C@@H]1C[C@@H](F)CN(C(=O)c2cc(OC)c3c(CCO)c(-c4cc5ccccc5n4CC4CC4)oc3c2)C1 [Example 631, (2-(1-(cyclopropylmethyl)-1H-indol-2-yl)-3-(2-hydroxyethyl)-4-methoxybenzofuran-6-yl)((3R,5R)-3-fluoro-5-(methylamino)piperidin-1-yl)methanone] | 7580 nM
11 | COc1cc(C(=O)N2C[C@H](N)C[C@@H](F)C2)cc2oc(-c3cc4cccc(OC)c4n3CC3CC3)c(CCO)c12 [Example 632, ((3R,5R)-3-amino-5-fluoropiperidin-1-yl)(2-(1-(cyclopropylmethyl)-7-methoxy-1H-indol-2-yl)-3-(2-hydroxyethyl)-4-methoxybenzofuran-6-yl)methanone] | 327 nM
12 | COc1cc(C(=O)N2C[C@H](N)C[C@@H](F)C2)cc2oc(-c3cc4cccc(OCC5CNC(=O)C5)c4n3CC3CC3)c(CCO)c12 (stereo partly drawn) [Example 633, 4-(((2-(6-((3R,5R)-3-amino-5-fluoropiperidine-1-carbonyl)-3-(2-hydroxyethyl)-4-methoxybenzofuran-2-yl)-1-(cyclopropylmethyl)-1H-indol-7-yl)oxy)methyl)pyrrolidin-2-one] | 179 nM
13 | COc1cc(C(=O)N2C[C@H](N)C[C@@H](F)C2)cc2oc(-c3cc4cccc(OCCO)c4n3CC3CC3)c(CCO)c12 [Example 634, ((3R,5R)-3-amino-5-fluoropiperidin-1-yl)(2-(1-(cyclopropylmethyl)-7-(2-hydroxyethoxy)-1H-indol-2-yl)-3-(2-hydroxyethyl)-4-methoxybenzofuran-6-yl)methanone] | 209 nM
14 | COc1cc(C(=O)N2C[C@H](N)C[C@@H](F)C2)cc2oc(-c3cc4cccc(OCCn5cncn5)c4n3CC3CC3)c(CCO)c12 [Example 635, (2-(7-(2-(1H-1,2,4-triazol-1-yl)ethoxy)-1-(cyclopropylmethyl)-1H-indol-2-yl)-3-(2-hydroxyethyl)-4-methoxybenzofuran-6-yl)((3R,5R)-3-amino-5-fluoropiperidin-1-yl)methanone] | 216 nM
15 | COc1cc(C(=O)N2C[C@H](N)C[C@@H](F)C2)cc2oc(-c3cc4cccc(OCC5CNC5)c4n3CC3CC3)c(CCO)c12 [Example 636, ((3R,5R)-3-amino-5-fluoropiperidin-1-yl)(2-(7-(azetidin-3-ylmethoxy)-1-(cyclopropylmethyl)-1H-indol-2-yl)-3-(2-hydroxyethyl)-4-methoxybenzofuran-6-yl)methanone] | 277 nM
16 | COc1cc(C(=O)N2C[C@H](N)C[C@@H](F)C2)cc2oc(-c3cc4cccc(OCC5CN(C)C5)c4n3CC3CC3)c(CCO)c12 [Example 637, ((3R,5R)-3-amino-5-fluoropiperidin-1-yl)(2-(1-(cyclopropylmethyl)-7-((1-methylazetidin-3-yl)methoxy)-1H-indol-2-yl)-3-(2-hydroxyethyl)-4-methoxybenzofuran-6-yl)methanone] | 621 nM
17 | COc1cc(C(=O)N2C[C@H](N)C[C@@H](F)C2)cc2oc(-c3cc4cccc(OCC5COC5)c4n3CC3CC3)c(CCO)c12 [Example 638, ((3R,5R)-3-amino-5-fluoropiperidin-1-yl)(2-(1-(cyclopropylmethyl)-7-(oxetan-3-ylmethoxy)-1H-indol-2-yl)-3-(2-hydroxyethyl)-4-methoxybenzofuran-6-yl)methanone] | 295 nM
18 | COc1cc(C(=O)N2C[C@H](N)C[C@@H](F)C2)cc2oc(-c3cc4cccc(OCc5ncno5)c4n3CC3CC3)c(CCO)c12 [Example 639, (2-(7-((1,2,4-oxadiazol-5-yl)methoxy)-1-(cyclopropylmethyl)-1H-indol-2-yl)-3-(2-hydroxyethyl)-4-methoxybenzofuran-6-yl)((3R,5R)-3-amino-5-fluoropiperidin-1-yl)methanone] | 243 nM
